Reference: ChEMBL document CHEMBL3885881, “DrugMatrix”

Species on record: Rattus norvegicus
Test: DrugMatrix - Regimen: Daily Repeat
Format: toxicity, organism-based, Sprague-Dawley
Design: regimen Daily Repeat, gender Male, age 6-8 weeks
Settings: in vivo, po, 0.3 mg/kg, route oral GAVAGE, dose level Low, vehicle .5 % CMC; for ABSOLUTE BASOPHIL / ABSOLUTE EOSINOPHIL / ABSOLUTE LYMPHOCYTE / ABSOLUTE MONOCYTE / ABSOLUTE SEGMENTED NEUTROPHIL / BASOPHIL / EOSINOPHIL / ERYTHROCYTE COUNT / HEMATOCRIT / HEMOGLOBIN / LEUKOCYTE COUNT / LYMPHOCYTE / MEAN CORPUSCULAR HEMOGLOBIN / MEAN CORPUSCULAR HEMOGLOBIN CONCENTRATION / MEAN CORPUSCULAR VOLUME / MONOCYTE / NEUTROPHIL / NUCLEATED RED BLOOD CELLS / PLATELET COUNT: tissue Blood; for ALANINE AMINOTRANSFERASE / ALBUMIN / ALKALINE PHOSPHATASE / ASPARTATE AMINOTRANSFERASE / BLOOD UREA NITROGEN / CARBON DIOXIDE / CHLORIDE / CHOLESTEROL / CREATINE PHOSPHOKINASE / CREATININE / GLUCOSE / LACTATE DEHYDROGENASE / LIPASE / PHOSPHORUS / POTASSIUM / SODIUM / TOTAL BILIRUBIN / TOTAL PROTEIN / URIC ACID: tissue Plasma

Structure (SMILES): Nc1c(CC(=O)O)cccc1C(=O)c1ccc(Br)cc1 [BROMFENAC]
- ABSOLUTE BASOPHIL (72 h, time 3 day): 0 CELLS/uL
- ABSOLUTE EOSINOPHIL (72 h, time 3 day): 0 CELLS/uL
- ABSOLUTE LYMPHOCYTE (72 h, time 3 day): 8435.67 CELLS/uL
- ABSOLUTE MONOCYTE (72 h, time 3 day): 96.67 CELLS/uL
- ABSOLUTE SEGMENTED NEUTROPHIL (72 h, time 3 day): 1134.33 CELLS/uL
- BASOPHIL (72 h, time 3 day): 0%
- EOSINOPHIL (72 h, time 3 day): 0%
- ERYTHROCYTE COUNT (72 h, time 3 day): 5.55 x10E6/uL
- HEMATOCRIT (72 h, time 3 day): 35.1%
- HEMOGLOBIN (72 h, time 3 day): 13.07 G/DL
- LEUKOCYTE COUNT (72 h, time 3 day): 9.67 x10E3/uL
- LYMPHOCYTE (72 h, time 3 day): 88%
- MEAN CORPUSCULAR HEMOGLOBIN (72 h, time 3 day): 23.57 pg
- MEAN CORPUSCULAR HEMOGLOBIN CONCENTRATION (72 h, time 3 day): 37.2 G/DL
- MEAN CORPUSCULAR VOLUME (72 h, time 3 day): 63.33 fL
- MONOCYTE (72 h, time 3 day): 1%
- NEUTROPHIL (72 h, time 3 day): 11%
- NUCLEATED RED BLOOD CELLS (72 h, time 3 day): 0 /100WBC
- PLATELET COUNT (72 h, time 3 day): 1028.33 x10E3/uL
- ALANINE AMINOTRANSFERASE (72 h, time 3 day): 48.33 u/L
- ALBUMIN (72 h, time 3 day): 4.43 G/DL
- ALKALINE PHOSPHATASE (72 h, time 3 day): 514.33 u/L
- ASPARTATE AMINOTRANSFERASE (72 h, time 3 day): 96 u/L
- BLOOD UREA NITROGEN (72 h, time 3 day): 15.67 mg/dL
- CARBON DIOXIDE (72 h, time 3 day): 31.33 mmol/L
- CHLORIDE (72 h, time 3 day): 101.5 MEQ/L
- CHOLESTEROL (72 h, time 3 day): 68.67 mg/dL
- CREATINE PHOSPHOKINASE (72 h, time 3 day): 316.33 u/L
- CREATININE (72 h, time 3 day): 0.23 mg/dL
- GLUCOSE (72 h, time 3 day): 142 mg/dL
- LACTATE DEHYDROGENASE (72 h, time 3 day): 121.67 u/L
- LIPASE (72 h, time 3 day): 9.67 u/L
- PHOSPHORUS (72 h, time 3 day): 11.03 mg/dL
- POTASSIUM (72 h, time 3 day): 5.91 MEQ/L
- SODIUM (72 h, time 3 day): 144.65 MEQ/L
- TOTAL BILIRUBIN (72 h, time 3 day): 0.1 mg/dL
- TOTAL PROTEIN (72 h, time 3 day): 6.13 G/DL
- URIC ACID (72 h, time 3 day): 0.67 mg/dL
- ABSOLUTE BASOPHIL (120 h, time 5 day): 0 CELLS/uL
- ABSOLUTE EOSINOPHIL (120 h, time 5 day): 0 CELLS/uL
- ABSOLUTE LYMPHOCYTE (120 h, time 5 day): 10092.67 CELLS/uL
- ABSOLUTE MONOCYTE (120 h, time 5 day): 194 CELLS/uL
- ABSOLUTE SEGMENTED NEUTROPHIL (120 h, time 5 day): 1180 CELLS/uL
- BASOPHIL (120 h, time 5 day): 0%
- EOSINOPHIL (120 h, time 5 day): 0%
- ERYTHROCYTE COUNT (120 h, time 5 day): 5.77 x10E6/uL
- HEMATOCRIT (120 h, time 5 day): 37.27%
- HEMOGLOBIN (120 h, time 5 day): 13.97 G/DL
- LEUKOCYTE COUNT (120 h, time 5 day): 11.47 x10E3/uL
- LYMPHOCYTE (120 h, time 5 day): 87.33%
- MEAN CORPUSCULAR HEMOGLOBIN (120 h, time 5 day): 24.17 pg
- MEAN CORPUSCULAR HEMOGLOBIN CONCENTRATION (120 h, time 5 day): 37.5 G/DL
- MEAN CORPUSCULAR VOLUME (120 h, time 5 day): 64.5 fL
- MONOCYTE (120 h, time 5 day): 1.33%
- NEUTROPHIL (120 h, time 5 day): 11.33%
- NUCLEATED RED BLOOD CELLS (120 h, time 5 day): 0 /100WBC
- PLATELET COUNT (120 h, time 5 day): 1201.33 x10E3/uL
- ALANINE AMINOTRANSFERASE (120 h, time 5 day): 48.67 u/L
- ALBUMIN (120 h, time 5 day): 4.57 G/DL
- ALKALINE PHOSPHATASE (120 h, time 5 day): 385 u/L
- ASPARTATE AMINOTRANSFERASE (120 h, time 5 day): 86.33 u/L
- BLOOD UREA NITROGEN (120 h, time 5 day): 15.67 mg/dL
- CARBON DIOXIDE (120 h, time 5 day): 35.33 mmol/L
- CHLORIDE (120 h, time 5 day): 99.67 MEQ/L
- CHOLESTEROL (120 h, time 5 day): 83.67 mg/dL
- CREATINE PHOSPHOKINASE (120 h, time 5 day): 586 u/L
- CREATININE (120 h, time 5 day): 0.2 mg/dL
- GLUCOSE (120 h, time 5 day): 151 mg/dL
- LACTATE DEHYDROGENASE (120 h, time 5 day): 148.33 u/L
- LIPASE (120 h, time 5 day): 9.33 u/L
- PHOSPHORUS (120 h, time 5 day): 10.9 mg/dL
- POTASSIUM (120 h, time 5 day): 6.38 MEQ/L
- SODIUM (120 h, time 5 day): 143.9 MEQ/L
- TOTAL BILIRUBIN (120 h, time 5 day): 0.2 mg/dL
- TOTAL PROTEIN (120 h, time 5 day): 6.77 G/DL
- URIC ACID (120 h, time 5 day): 0.8 mg/dL
